In patent publication US20120077673A1, “Fungicidal Compositions and Methods of Use” (priority 2010, published 2012):

Legend:
Assay type in all cases: in vivo
[1] = system: Pythium; assay: Corn field trial, Pythium-infected seeds, seed treatment, soil not inoculated (Example 1); design: Density: unit not given here; conditions: for Vigor: subjective score, lower more favorable
Source text: Unlike other experiments disclosed herein, the soil for the experiment of EXAMPLE 1 was not inoculated with Pythium. Uninfected untreated, and Pythium-infected untreated seeds served as controls. Triadimenol, 15% w/v, is a systemic broad-spectrum fungicide used for cereal seed treatment, but has no activity against Pythium spp. Metalaxyl, 28.35% w/v, provides systemic protection for the seed, roots, and emerging plants against Pythium, systemic downy mildew, and Phytophthora. For corn, the industry standard dosage of metalaxyl is 2 grams of active ingredient per 100 kilograms of seed (2 GA/100 Kg). Saponin, 49.65% v/v extract of Chenopodium quinoa saponins, contained approximately equimolar amounts of triterpene bidesmosidic glycosides of oleanolic acid, hederagenin, and phytolaccagenic acid. […] In TABLE 1, “Vigor” represents a subjective measure of plant health and is based on uniformity, consistent plant mass, and consistent plant spacing, with lower scores being more favorable than higher scores. The data of TABLE 1 are shown graphically in FIGS. 1A and 1B. As shown by TABLE 1 and FIGS. 1A and 1B, the count and the density increased—over time—for all treatment conditions. The relative density, however, decreased over time for the […] and metalaxyl (2 GA/100 kg) categories. The relative density remained the same for the untreated/uninfected category because it provided the reference point (i.e., the relative densities were calculated with reference to the untreated/uninfected category).

[2] = system: Pythium; assay: Cotton field trial, Pythium-infected seeds, seed treatment, control or Pythium-inoculated soil (Example 2)
Source text: The seeds were planted in a field, either in soil that had been inoculated with Pythium (Soil Inoc. with Pythium), or in soil that had not been inoculated with Pythium (Ctrl.), then allowed to grow. Concentrations and compositions of triadimenol, metalaxyl, and saponin are the same as given in Example 1. For cotton, the industry standard dosage of metalaxyl is 15.5 grams of active ingredient per 100 kilograms of seed (15.5 GA/100 Kg). […] The data of TABLE 2 are shown graphically in FIG. 2. The relative densities for the data of TABLE 2 and FIG. 2 were calculated with reference to the 15.5 GA/100 Kg metalaxyl category. As shown by TABLE 2 and FIG. 2, inoculation of the soil with Pythium was correlated with a general decrease in cotton seedling count and density (compare Ctrl. versus Inoc.).

[3] = system: Pythium; assay: Corn hybrids greenhouse trial, Pythium-infected seeds, seed treatment (Example 4)
Source text: Concentrations and compositions of triadimenol, metalaxyl, and saponin are the same as given in Example 1. The data of TABLE 4 are shown graphically in FIGS. 4A and 4B. As shown by TABLE 4 and FIGS. 4A and 4B, pre-treatment of both varieties of corn seeds with 1 GA/100 Kg metalaxyl and 0.6 GA/100 Kg yielded counts similar to those achieved from pre-treatment of seeds with either 2 GA/100 Kg metalaxyl (the industry standard dose for corn) or 7.5 GA/100 Kg metalaxyl.

[4] = system: Pythium ultimum; assay: Cotton varieties greenhouse trial, metalaxyl-resistant Pythium ultimum (Example 5)
Source text: Two different varieties of cotton seedlings (Variety A, and Variety B) that were infected with Pythium ultimum were exposed to various rates of metalaxyl, saponins, or metalaxyl+Saponin, and then allowed to grow in a greenhouse to determine whether the effects observed in the field could be reproduced in a greenhouse setting. This particular strain of Pythium ultimum was shown previously to have a mid-degree of resistance to seed treatments containing metalaxyl and/or L-metalaxyl. […] The stand counts from Variety B show a similar trend with the 1 GA/100 Kg rate of metalaxyl (see FIG. 5B).

[5] = Metalaxyl 7.5 GA/100 Kg, 30 DAA
[6] = Metalaxyl 7.5 GA/100 Kg, 46 DAA
[7] = Metalaxyl 15.5 GA/100 Kg, 34 DAA, Ctrl. soil
[8] = Metalaxyl 15.5 GA/100 Kg, 34 DAA, Soil Inoc. with Pythium
[9] = Metalaxyl 15.5 GA/100 Kg, 46 DAA, Ctrl. soil
[10] = Metalaxyl 15.5 GA/100 Kg, 46 DAA, Soil Inoc. with Pythium
[11] = Metalaxyl 31 GA/100 Kg, 34 DAA, Ctrl. soil
[12] = Metalaxyl 31 GA/100 Kg, 34 DAA, Soil Inoc. with Pythium
[13] = Metalaxyl 31 GA/100 Kg, 46 DAA, Ctrl. soil
[14] = Metalaxyl 31 GA/100 Kg, 46 DAA, Soil Inoc. with Pythium
[15] = Metalaxyl 7.5 GA/100 Kg, Day 14

## COCC(=O)N(c1c(C)cccc1C)C(C)C(=O)OC (centres unmarked) [Metalaxyl]
[1]; Metalaxyl 2 GA/100 Kg, 30 DAA
  Count: 37
  Density: 46.6
  Relative Density: 124.2
[1]; Metalaxyl 2 GA/100 Kg, 46 DAA
  Count: 73
  Density: 90.9
  Relative Density: 117.8
  Vigor: 3.75
[1]; [5]
  Count: 34
  Density: 42.8
  Relative Density: 114.2
[1]; [6]
  Count: 73
  Density: 91.6
  Relative Density: 118.6
  Vigor: 3.5
[2]; Metalaxyl 15.5 GA/100 Kg (reference), 34 DAA, Ctrl. soil
  Relative Density: 100
[2]; Metalaxyl 15.5 GA/100 Kg (reference), 34 DAA, Soil Inoc. with Pythium
  Relative Density: 100
[2]; Metalaxyl 15.5 GA/100 Kg (reference), 46 DAA, Ctrl. soil
  Relative Density: 100
[2]; Metalaxyl 15.5 GA/100 Kg (reference), 46 DAA, Soil Inoc. with Pythium
  Relative Density: 100
[2]; [7]
  Count: 37
  Density: 74
[2]; [8]
  Count: 25
  Density: 50
[2]; [9]
  Count: 37.5
  Density: 75
[2]; [10]
  Count: 24.5
  Density: 49
[2]; [11]
  Count: 38
  Density: 76
  Relative Density: 102.7
[2]; [12]
  Count: 26.5
  Density: 53
  Relative Density: 106
[2]; [13]
  Count: 37
  Density: 74
  Relative Density: 98.7
[2]; [14]
  Count: 24.5
  Density: 49
  Relative Density: 100
[3]; Metalaxyl 2 GA/100 Kg, Day 2
  Count, Hybrid A: 92
  Count, Hybrid B: 74
[3]; Metalaxyl 2 GA/100 Kg, Day 7
  Count, Hybrid A: 98
  Count, Hybrid B: 88
[3]; Metalaxyl 2 GA/100 Kg, Day 14
  Count, Hybrid A: 98
  Count, Hybrid B: 88
[3]; Metalaxyl 7.5 GA/100 Kg, Day 2
  Count, Hybrid A: 94
  Count, Hybrid B: 64
[3]; Metalaxyl 7.5 GA/100 Kg, Day 7
  Count, Hybrid A: 96
  Count, Hybrid B: 94
[3]; [15]
  Count, Hybrid A: 96
  Count, Hybrid B: 98
[4]; Metalaxyl 1 GA/100 Kg, Day 6
  Count, Variety A: 76
  Count, Variety B: 77
[4]; Metalaxyl 1 GA/100 Kg, Day 14
  Count, Variety A: 57
  Count, Variety B: 26
[4]; Metalaxyl 1 GA/100 Kg, Day 19
  Count, Variety A: 24
  Count, Variety B: 5
[4]; Metalaxyl 5 GA/100 Kg, Day 6
  Count, Variety A: 70
  Count, Variety B: 94
[4]; Metalaxyl 5 GA/100 Kg, Day 14
  Count, Variety A: 73
  Count, Variety B: 84
[4]; Metalaxyl 5 GA/100 Kg, Day 19
  Count, Variety A: 49
  Count, Variety B: 45
[4]; Metalaxyl 10 GA/100 Kg, Day 6
  Count, Variety A: 73.75
  Count, Variety B: 83
[4]; Metalaxyl 10 GA/100 Kg, Day 14
  Count, Variety A: 77.5
  Count, Variety B: 85
[4]; Metalaxyl 10 GA/100 Kg, Day 19
  Count, Variety A: 72.5
  Count, Variety B: 68
[4]; Metalaxyl 15 GA/100 Kg, Day 6
  Count, Variety A: 60
  Count, Variety B: 83
[4]; Metalaxyl 15 GA/100 Kg, Day 14
  Count, Variety A: 81.25
  Count, Variety B: 80
[4]; Metalaxyl 15 GA/100 Kg, Day 19
  Count, Variety A: 36.25
  Count, Variety B: 62
